This assay relates to KRAS G12V dependent lung adenocarcinoma cell line, NCI-H441. The experiment in a line: Cellular pERK (Thr202/Tyr204) FRET/HTRF assay. Type of assay: cell-based. The following applies: Homo sapiens, NCI-H441, cellular pERK (Thr202/Tyr204) HTRF, NCI-H441 cells. The procedure, abridged: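 NCI-H441 cells (KRAS G12V) plated overnight at 37 °C, then exposed to compounds for 1 hr at 37 °C, 5% CO2; DMSO as negative control. Lysates read by Eu-cryptate/d2 sandwich FRET (665 nm) for ERK1/2 phosphorylated at Thr202/Tyr204; IC50 from curve fit.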
In general terms: TR-FRET usually uses a lanthanide donor and a delayed reading to cut background.
Regarding `[2H]C([2H])(Oc1nc(N2CCC(=O)C[C@@H]3[C@H](F)[C@@H]32)c2cnc(-c3cc(N)cc4cc(F)c(F)c(C#C)c34)c(F)c2n1)[C@@]12CCCN1C[C@H](F)C2` [Example 194, (1R,7S,8S)-2-(7-(3-amino-8-ethynyl-6,7-difluoronaphthalen-1-yl)-8-fluoro-2-(((2R,7aS)-2-fluorotetrahydro-1H-pyrrolizin-7a(5H)-yl)methoxy-d2)pyrido[4,3-d]pyrimidin-4-yl)-8-fluoro-2-azabicyclo[5.1.0]octan-5-one], the IC50 – broadly, the point on the concentration scale where inhibition reaches its midpoint – was 50 to 500 nM.
On to `[2H]C([2H])(Oc1nc(N2CCC(=O)C[C@H]3[C@H](F)[C@H]32)c2cnc(-c3cc(N)cc4cc(F)c(F)c(C#C)c34)c(F)c2n1)[C@@]12CCCN1C[C@H](F)C2` [Example 195, (1S,7R,8S)-2-(7-(3-amino-8-ethynyl-6,7-difluoronaphthalen-1-yl)-8-fluoro-2-(((2R,7aS)-2-fluorotetrahydro-1H-pyrrolizin-7a(5H)-yl)methoxy-d2)pyrido[4,3-d]pyrimidin-4-yl)-8-fluoro-2-azabicyclo[5.1.0]octan-5-one], for which the concentration for half-maximal inhibition (IC50) is under 50 nM.
The figure for `[2H]C([2H])(Oc1nc(N2CCC(=O)C[C@@H]3[C@@H](F)[C@@H]32)c2cnc(-c3cc(N)cc4cc(F)c(F)c(C#C)c34)c(F)c2n1)[C@@]12CCCN1C[C@H](F)C2` [Example 196, (1R,7S,8R)-2-(7-(3-amino-8-ethynyl-6,7-difluoronaphthalen-1-yl)-8-fluoro-2-(((2R,7aS)-2-fluorotetrahydro-1H-pyrrolizin-7a(5H)-yl)methoxy-d2)pyrido[4,3-d]pyrimidin-4-yl)-8-fluoro-2-azabicyclo[5.1.0]octan-5-one] is under 50 nM; for `[2H]C([2H])(Oc1nc(N2CCC(=O)C[C@H]3[C@@H](F)[C@H]32)c2cnc(-c3cc(N)cc4cc(F)c(F)c(C#C)c34)c(F)c2n1)[C@@]12CCCN1C[C@H](F)C2` [Example 197, (1S,7R,8R)-2-(7-(3-amino-8-ethynyl-6,7-difluoronaphthalen-1-yl)-8-fluoro-2-(((2R,7aS)-2-fluorotetrahydro-1H-pyrrolizin-7a(5H)-yl)methoxy-d2)pyrido[4,3-d]pyrimidin-4-yl)-8-fluoro-2-azabicyclo[5.1.0]octan-5-one] it is 50 to 500 nM; for `C#Cc1c(F)ccc2cc(O)cc(-c3ncc4c(N5CCOC[C@H]6[C@H](F)[C@H]65)nc(OC[C@]56C[C@@H](F)CN5C[C@@H](CN)C6)nc4c3F)c12` [Example 198, 4-(2-(((2R,6R,7aS)-2-(aminomethyl)-6-fluorotetrahydro-1H-pyrrolizin-7a(5H)-yl)methoxy)-8-fluoro-4-((1S,7S,8S)-8-fluoro-5-oxa-2-azabicyclo[5.1.0]octan-2-yl)pyrido[4,3-d]pyrimidin-7-yl)-5-ethynyl-6-fluoronaphthalen-2-ol] it is 50 to 500 nM.
Next, `[2H]C([2H])(Oc1nc(N2CCOC[C@H]3[C@H](F)[C@H]32)c2cnc(-c3cc(N)cc4ccc(F)c(C=C)c34)c(F)c2n1)[C@@]12CCCN1C[C@H](F)C2` [Example 199, 6-Fluoro-4-(8-fluoro-4-((1S,7S,8S)-8-fluoro-5-oxa-2-azabicyclo[5.1.0]octan-2-yl)-2-(((2R,7aS)-2-fluorotetrahydro-1H-pyrrolizin-7a(5H)-yl)methoxy-d2)pyrido[4,3-d]pyrimidin-7-yl)-5-vinylnaphthalen-2-amine]: under 50 nM.
For the molecule `[2H]C([2H])(F)Oc1c(F)ccc2cc(N)cc(-c3ncc4c(N5CCOC[C@H]6[C@H](F)[C@H]65)nc(OC[C@@]56CCCN5CC5(CC5)C6)nc4c3F)c12` [Example 200, 4-(2-(((S)-dihydro-1′H,3′H-spiro[cyclopropane-1,2′-pyrrolizin]-7a′(5′H)-yl)methoxy)-8-fluoro-4-((1S,7S,8S)-8-fluoro-5-oxa-2-azabicyclo[5.1.0]octan-2-yl)pyrido[4,3-d]pyrimidin-7-yl)-6-fluoro-5-(fluoromethoxy-d2)naphthalen-2-amine], the concentration for half-maximal inhibition (IC50) is under 50 nM.
The molecule `[2H]C([2H])(Oc1nc(N2CCOC[C@H]3[C@H](F)[C@H]32)c2cnc(-c3cc(N)cc4ccc(F)c(CC)c34)c(F)c2n1)[C@@]12CCCN1C[C@H](F)C2` [Example 201, 5-ethyl-6-fluoro-4-(8-fluoro-4-((1S,7S,8S)-8-fluoro-5-oxa-2-azabicyclo[5.1.0]octan-2-yl)-2-(((2R,7aS)-2-fluorotetrahydro-1H-pyrrolizin-7a(5H)-yl)methoxy-d2)pyrido[4,3-d]pyrimidin-7-yl)naphthalen-2-amine] yielded an IC50 of under 50 nM.
`C#Cc1c(F)ccc2cc(N)cc(-c3ncc4c(N5CCOC[C@H]6[C@H](F)[C@H]65)nc(OC[C@]56CC7(CC7)CN5CCC65CC5)nc4c3F)c12` [Example 206, 4-(2-(((R)-Dihydro-5′H-dispiro[cyclopropane-1,1′-pyrrolizine-6′,1″-cyclopropan]-7a′(7′H)-yl)methoxy)-8-fluoro-4-((1S,7S,8S)-8-fluoro-5-oxa-2-azabicyclo[5.1.0]octan-2-yl)pyrido[4,3-d]pyrimidin-7-yl)-5-ethynyl-6-fluoronaphthalen-2-amine] gave a concentration for half-maximal inhibition (IC50) of under 50 nM.
The molecule `C#Cc1c(F)ccc2cc(N)cc(-c3ncc4c(N5CCOC[C@H]6[C@H](F)[C@H]65)nc(OC[C@@]56CC7(CC7)CN5CCC65CC5)nc4c3F)c12` [Example 207, 4-(2-(((S)-dihydro-5′H-dispiro[cyclopropane-1,1′-pyrrolizine-6′,1″- cyclopropan]-7a′(7′H)-yl)methoxy)-8-fluoro-4-((1S,7S,8S)-8-fluoro-5-oxa-2-azabicyclo[5.1.0]octan-2-yl)pyrido[4,3-d]pyrimidin-7-yl)-5-ethynyl-6-fluoronaphthalen-2-amine] returned an IC50 of under 50 nM.
`C#Cc1c(F)ccc2cc(N)cc(-c3ncc4c(N5CCOC[C@H]6[C@H](F)[C@H]65)nc(OC[C@@]56CCCN5C[C@H](F)C6)nc4c3F)c12` [Example 212, 5-Ethynyl-6-fluoro-4-(8-fluoro-4-((1S,7S,8S)-8-fluoro-5-oxa-2-azabicyclo[5.1.0]octan-2-yl)-2-(((2R,7aS)-2-fluorotetrahydro-1H-pyrrolizin-7a(5H)-yl)methoxy)pyrido[4,3-d]pyrimidin-7-yl)naphthalen-2-amine] registered a 50% inhibitory concentration (IC50) of under 50 nM.
In turn, `[2H]C([2H])(Oc1nc(N2CCOC[C@H]3[C@H](F)[C@H]32)c2cnc(-c3cc(N)cc4ccc(F)c(C#C)c34)c(F)c2n1)C12CCCN1CCC2` [Example 213, 5-ethynyl-6-fluoro-4-(8-fluoro-4-((1S,7S,8S)-8-fluoro-5-oxa-2-azabicyclo[5.1.0]octan-2-yl)-2-((tetrahydro-1H-pyrrolizin-7a(5H)-yl)methoxy-d2)pyrido[4,3-d]pyrimidin-7-yl)naphthalen-2-amine] registered an IC50 of under 50 nM.
As to `[2H]C([2H])(Oc1nc(N2CCOC[C@H]3[C@H](F)[C@H]32)c2cnc(-c3cc(N)cc4ccc(F)c(C#C)c34)c(F)c2n1)[C@@]12CCCN1CC(F)(F)C2` [Example 220, 4-(2-(((S)-2,2-difluorotetrahydro-1H-pyrrolizin-7a(5H)-yl)methoxy-d2)-8-fluoro-4-((1S,7S,8S)-8-fluoro-5-oxa-2-azabicyclo[5.1.0]octan-2-yl)pyrido[4,3-d]pyrimidin-7-yl)-5-ethynyl-6-fluoronaphthalen-2-amine], the IC50 was under 50 nM.

Values taken from patent US20250282799A1, “SUBSTITUTED PYRIDO[4,3-d]PYRIMIDINES AS KRAS MODULATORS” (Alterome Therapeutics, Inc., priority 2023, published 2025).
